# Where two headings read alike, the source gives them in different places.
# System: human umbilical vein endothelial cells (HUVEC)
# Assay: HUVEC proliferation assay
# Type: cell-based
# Settings: for inhibition at 0.05 µM / inhibition at 0.15 µM / inhibition at 0.001 µM / inhibition at 0.01 µM: Homo sapiens, HUVEC; for inhibition at 0.05 µM: 50 nM; for inhibition at 0.15 µM / % inhibition @ 150 nM: Table I screening results, 150 nM; for inhibition at 0.001 µM: 1 nM; for inhibition at 0.01 µM: 10 nM
# Summary of the method: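 Exponentially growing HUVEC were serum-starved 24 h (F12K + 1% FBS), pre-treated 1 h with compound (0.1% DMSO final), then stimulated with 6 ng/ml VEGF. Proliferation was read 72 h later by MTT reduction (A595). IC50 came from seven 0.5-log concentrations in triplicate; screens gave % inhibition relative to VEGF-only and starved wells.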
# [1] = Inhibition of HUVEC Proliferation, crude combinatorial urea library, read-out: % inhibition @ 50 nM
# [2] = Inhibition of HUVEC Proliferation, crude combinatorial urea library, read-out: Inhibition @ 50 nM
# [3] = crude combinatorial amide library
# [4] = Table II screening results, crude combinatorial amide library
# [5] = Table II screening results, crude combinatorial amide library, read-out: % inhibition @ 10 nM
# [6] = table following Table II (untitled), crude combinatorial library
# [7] = table following Table II (untitled), crude combinatorial library, read-out: % inhibition @ 10 nM
# [8] = crude combinatorial urea library, read-out: Inhibition of HUVEC Proliferation % inhibition @ 10 nM
# [9] = crude combinatorial urea library, read-out: Inhibition of HUVEC Proliferation % inhibition @ 50 nM
smiles,measurement,setting,value
COc1cccc(C(=O)Nc2cc(-c3csc(-c4sc(NC(=O)NCCC(=O)NCC(=O)O)nc4N)n3)c(F)cc2F)c1,inhibition at 0.05 µM,[1],57%
COc1cccc(C(=O)Nc2cc(-c3noc(-c4sc(NC(=O)NCCCCN(C)C)nc4N)n3)c(F)cc2F)c1,inhibition at 0.05 µM,[2],-3%
COc1cc(Nc2nc(N)c(-c3nc(-c4cccc(NC(=O)Cc5cccc6ccccc56)c4)cs3)s2)cc(OC)c1OC,inhibition at 0.15 µM,[3],6%
COc1cc(Nc2nc(N)c(-c3nc(-c4cccc(NC(=O)c5ccccc5CCc5ccccc5)c4)cs3)s2)cc(OC)c1OC,inhibition at 0.15 µM,[3],-14%
COc1cccc(C(=O)Nc2cc(-c3csc(-c4sc(NC(=O)NCCNc5ccccc5)nc4N)n3)c(F)cc2F)c1,inhibition at 0.05 µM,[1],60%
COc1cccc(C(=O)Nc2cc(-c3noc(-c4sc(NC(=O)NCCNC(C)=O)nc4N)n3)c(F)cc2F)c1,inhibition at 0.05 µM,[2],75%
CNC(=O)Nc1nc(N)c(-c2nc(-c3cccc(NC(=O)C(=O)CC(C)C)c3)cs2)s1,inhibition at 0.001 µM,[4],3%
same,inhibition at 0.01 µM,[5],11%
COc1ccccc1/C=C\C(=O)Nc1cccc(-c2csc(-c3sc(Nc4cc(OC)c(OC)c(OC)c4)nc3N)n2)c1,inhibition at 0.15 µM,[3],53%
COc1cc(Nc2nc(N)c(-c3nc(-c4cc(NC(=O)C5CC(=O)N(C)C5)ccc4C)no3)s2)cc(OC)c1OC (stereo not drawn),inhibition at 0.001 µM,[6],16%
same,inhibition at 0.01 µM,[7],-18%
CNC(=O)Nc1nc(N)c(-c2nc(-c3cccc(NC(=O)CCC(=O)N4CCCC4)c3)cs2)s1,inhibition at 0.001 µM,[4],6%
same,inhibition at 0.01 µM,[5],-10%
COc1cccc(CC(=O)Nc2ccc(C)c(-c3noc(-c4sc(Nc5cc(OC)c(OC)c(OC)c5)nc4N)n3)c2)c1,inhibition at 0.001 µM,[6],12%
same,inhibition at 0.01 µM,[7],35%
COc1cccc(C(=O)Nc2cccc(-c3csc(-c4sc(NC(=O)N[C@H]5CC[C@H](O)CC5)nc4N)n3)c2)c1,inhibition at 0.01 µM,[8],-6%
same,inhibition at 0.05 µM,[9],21%
COc1ccc2[nH]c(C(=O)Nc3cccc(-c4csc(-c5sc(Nc6cc(OC)c(OC)c(OC)c6)nc5N)n4)c3)cc2c1,inhibition at 0.15 µM,[3],1%
CCc1ccccc1C(=O)Nc1ccc(C)c(-c2noc(-c3sc(Nc4cc(OC)c(OC)c(OC)c4)nc3N)n2)c1,inhibition at 0.001 µM,[6],-26%
same,inhibition at 0.01 µM,[7],59%
COc1cccc(C(=O)Nc2cc(-c3csc(-c4sc(NC(=O)NCCN5CCNCC5)nc4N)n3)c(F)cc2F)c1,inhibition at 0.05 µM,[1],46%
COc1cc(Nc2nc(N)c(-c3nc(-c4cc(NC(=O)C5CCOC5)ccc4C)no3)s2)cc(OC)c1OC (stereo not drawn),inhibition at 0.001 µM,[6],16%
same,inhibition at 0.01 µM,[7],6%
COc1cc(Nc2nc(N)c(-c3nc(-c4cccc(NC(=O)c5c[nH]cn5)c4)cs3)s2)cc(OC)c1OC,inhibition at 0.15 µM,[3],15%
COc1cccc(C(=O)Nc2cc(-c3csc(-c4sc(NC(=O)NCCN5CCOCC5)nc4N)n3)c(F)cc2F)c1 [drawing 700],inhibition at 0.05 µM,[1],96%
COc1cc(Nc2nc(N)c(-c3nc(-c4cccc(NC(=O)c5ccc(C(C)C)cc5)c4)cs3)s2)cc(OC)c1OC [drawing 943],% inhibition @ 150 nM,"crude combinatorial amide library, 0.15 µM",6%
COc1cc(Nc2nc(N)c(-c3nc(-c4cccc(NC(=O)c5ccc6ccccc6n5)c4)cs3)s2)cc(OC)c1OC,inhibition at 0.15 µM,[3],-11%
COc1cc(Nc2nc(N)c(-c3nc(-c4cccc(NC(=O)c5ccco5)c4)cs3)s2)cc(OC)c1OC,inhibition at 0.15 µM,[3],15%
CNC(=O)Nc1nc(N)c(-c2nc(-c3cccc(NC(=O)C4C(C=C(C)C)C4(C)C)c3)cs2)s1 (stereo not drawn),inhibition at 0.001 µM,[4],-17%
same,inhibition at 0.01 µM,[5],12%
COc1cc(Nc2nc(N)c(-c3nc(-c4cccc(NC(=O)c5ccc6c(c5)C(=O)NC6=O)c4)cs3)s2)cc(OC)c1OC,inhibition at 0.15 µM,[3],-6%
COc1cc(Nc2nc(N)c(-c3nc(-c4cc(NC(=O)CCc5ccc(C)cc5)ccc4C)no3)s2)cc(OC)c1OC,inhibition at 0.001 µM,[6],-18%
same,inhibition at 0.01 µM,[7],23%
COc1cc(Nc2nc(N)c(-c3nc(-c4cccc(NC(=O)CCc5cccnc5)c4)cs3)s2)cc(OC)c1OC,% inhibition @ 150 nM,[3],0%
COc1cccc(C(=O)Nc2cc(-c3csc(-c4sc(NC(=O)NCC(O)CO)nc4N)n3)c(F)cc2F)c1 (stereo not drawn),inhibition at 0.05 µM,[1],74%
COc1cccc(C(=O)Nc2cc(-c3noc(-c4sc(NC(=O)NCC(C)(C)CO)nc4N)n3)c(F)cc2F)c1,inhibition at 0.05 µM,[2],104%
CNC(=O)Nc1nc(N)c(-c2nc(-c3cccc(NC(=O)Cc4cc(F)ccc4F)c3)cs2)s1,inhibition at 0.001 µM,[4],-1%
same,inhibition at 0.01 µM,[5],4%
COc1cc(Nc2nc(N)c(-c3nc(-c4cccc(NC(=O)C5CCCCCC5)c4)cs3)s2)cc(OC)c1OC,inhibition at 0.15 µM,[3],13%
CCCCN(CCCC)CCCNC(=O)Nc1nc(N)c(-c2nc(-c3cc(NC(=O)c4cccc(OC)c4)c(F)cc3F)cs2)s1,inhibition at 0.05 µM,[1],81%
CCN1CC(NC(=O)Nc2nc(N)c(-c3nc(-c4cccc(NC(=O)c5cccc(OC)c5)c4)cs3)s2)CN1CC,inhibition at 0.01 µM,[8],-24%
same,inhibition at 0.05 µM,[9],45%
COc1cccc(C(=O)Nc2cc(-c3csc(-c4sc(NC(=O)NCCc5cncn5C)nc4N)n3)c(F)cc2F)c1,inhibition at 0.05 µM,[1],58%
COc1cccc(C(=O)Nc2cc(-c3noc(-c4sc(NC(=O)NCCN5CCCC5)nc4N)n3)c(F)cc2F)c1,inhibition at 0.05 µM,[2],79%
COc1cccc(C(=O)Nc2cc(-c3csc(-c4sc(NC(=O)NCC(=N)N)nc4N)n3)c(F)cc2F)c1,inhibition at 0.05 µM,[1],17%
COc1cccc(C(=O)Nc2cc(-c3csc(-c4sc(NC(=O)NCCc5c[nH]cn5)nc4N)n3)c(F)cc2F)c1,inhibition at 0.05 µM,[1],55%
COc1cc(Nc2nc(N)c(-c3nc(-c4cccc(NC(=O)C(Cc5ccccc5)c5ccccc5)c4)cs3)s2)cc(OC)c1OC (stereo not drawn),inhibition at 0.15 µM,[3],11%
[CH2-][N+](=O)c1cccc(/C=C/C(=O)Nc2cccc(-c3csc(-c4sc(Nc5cc(OC)c(OC)c(OC)c5)nc4N)n3)c2)c1,% inhibition @ 150 nM,[3],0%
COc1ccc(/C=C/C(=O)Nc2cccc(-c3csc(-c4sc(Nc5cc(OC)c(OC)c(OC)c5)nc4N)n3)c2)cc1OC,% inhibition @ 150 nM,[3],0%
COc1cc(Nc2nc(N)c(-c3nc(-c4cccc(NC(=O)CCOc5ccccc5)c4)cs3)s2)cc(OC)c1OC,inhibition at 0.15 µM,[3],11%
COc1cccc(C(=O)Nc2cc(-c3csc(-c4sc(NC(=O)NCC(C)C)nc4N)n3)c(F)cc2F)c1,inhibition at 0.05 µM,[1],38%
COc1cccc(C(=O)Nc2cccc(-c3csc(-c4sc(NC(=O)NCCOCCO)nc4N)n3)c2)c1,inhibition at 0.01 µM,[8],13%
same,inhibition at 0.05 µM,[9],92%
COc1cccc(C(=O)Nc2cc(-c3csc(-c4sc(NC(=O)NCc5ccc(S(N)(=O)=O)cc5)nc4N)n3)c(F)cc2F)c1,inhibition at 0.05 µM,[1],77%
COc1cc(Nc2nc(N)c(-c3nc(-c4cccc(NC(=O)C(C)(C)C)c4)cs3)s2)cc(OC)c1OC,inhibition at 0.15 µM,[3],7%
COc1cccc(C(=O)Nc2cccc(-c3csc(-c4sc(NC(=O)NCc5ccc(N(C)C)cc5)nc4N)n3)c2)c1,inhibition at 0.01 µM,[8],19%
same,inhibition at 0.05 µM,[9],67%
COc1cc(Nc2nc(N)c(-c3nc(-c4cccc(NC(=O)CCc5c[nH]c6ccccc56)c4)cs3)s2)cc(OC)c1OC,inhibition at 0.15 µM,[3],-4%
COc1ccc(C#N)c(C(=O)Nc2ccc(C)c(-c3noc(-c4sc(Nc5cc(OC)c(OC)c(OC)c5)nc4N)n3)c2)c1,inhibition at 0.001 µM,[6],9%
same,inhibition at 0.01 µM,[7],1%
COc1ccc2c(c1)C(CC(=O)Nc1cccc(-c3csc(-c4sc(Nc5cc(OC)c(OC)c(OC)c5)nc4N)n3)c1)CC2=O (stereo not drawn),inhibition at 0.15 µM,[3],0%
COc1cccc(C(=O)Nc2cc(-c3csc(-c4sc(NC(=O)NCCc5cccnc5)nc4N)n3)c(F)cc2F)c1,inhibition at 0.05 µM,[1],100%
COc1cc(Nc2nc(N)c(-c3nc(-c4cccc(NC(=O)Cc5cccnc5)c4)cs3)s2)cc(OC)c1OC,inhibition at 0.15 µM,[3],-20%
CNC(=O)Nc1nc(N)c(-c2nc(-c3cccc(NC(=O)C4CCCN4C(C)=O)c3)cs2)s1 (stereo not drawn),inhibition at 0.001 µM,[4],3%
same,inhibition at 0.01 µM,[5],27%
CNC(=O)Nc1nc(N)c(-c2nc(-c3cccc(NC(=O)c4cc(C)cc(=O)o4)c3)cs2)s1,inhibition at 0.001 µM,[4],5%
same,inhibition at 0.01 µM,[5],62%
C/C=C/C(=O)Nc1ccc(C)c(-c2noc(-c3sc(Nc4cc(OC)c(OC)c(OC)c4)nc3N)n2)c1,inhibition at 0.001 µM,[6],9%
same,inhibition at 0.01 µM,[7],65%
CNC(=O)Nc1nc(N)c(-c2nc(-c3cccc(NC(=O)c4cc(C)n[nH]4)c3)cs2)s1,inhibition at 0.001 µM,[4],32%
same,inhibition at 0.01 µM,[5],-22%
COc1cc(Nc2nc(N)c(-c3nc(-c4cc(NC(=O)CC(C)(C)NC(C)=O)ccc4C)no3)s2)cc(OC)c1OC,inhibition at 0.001 µM,[6],2%
same,inhibition at 0.01 µM,[7],-11%
COc1cc(Nc2nc(N)c(-c3nc(-c4cc(NC(=O)Cc5cccnc5)ccc4C)no3)s2)cc(OC)c1OC,inhibition at 0.001 µM,[6],-4%
same,inhibition at 0.01 µM,[7],21%

# From patent US6620828B2, “Thiazole compounds and pharmaceutical compositions for inhibiting protein kinases and methods for their use” (Agouron Pharmaceuticals, Inc., priority 1999, dated 2003)
